Results from ChEMBL document CHEMBL1148168, “The structures of aplysinamisines I, II, and III; new bromotyrosine-derived alkaloids from the Caribbean sponge Aplysina cauliformis” (J Nat Prod, 1993).
In brackets after ≈: the same amount, converted by molar mass. Activity calls are given as the source filed them. No cut-off for these calls is given here.

Assays:
Staphylococcus aureus = experiment: Antimicrobial activity against Staphylococcus aureus at 50 to 100 ug/disk; type: functional, organism-based
Pseudomonas aeruginosa = experiment: Antimicrobial activity against Pseudomonas aeruginosa at 50 to 100 ug/disk; type: functional, organism-based
Escherichia coli = experiment: Antimicrobial activity against Escherichia coli at 50 to 100 ug/disk; type: functional, organism-based
MCF7 = experiment: Cytotoxicity against human MCF7 cells; type: functional, cell-based
CCRF-CEM = experiment: Cytotoxicity against human CCRF-CEM cells; type: functional, cell-based
HCT-116 = experiment: Cytotoxicity against human HCT116 cells; type: functional, cell-based

SMILES | Activity (Staphylococcus aureus) | Activity (Pseudomonas aeruginosa) | Activity (Escherichia coli) | IC50 (MCF7) [µg/mL] | IC50 (CCRF-CEM) [µg/mL] | IC50 (HCT-116) [µg/mL]
COC1=C(Br)[C@H](O)[C@@]2(C=C1Br)CC(C(=O)NCCCOc1c(Br)cc(C(O)CNC(C)=O)cc1Br)=NO2 (some centres not stated) [APLYSINAMISINE III] | Active | Active | Active | 30 (≈ 38.7 µM) | 6 (≈ 7.74 µM) | 10 (≈ 12.9 µM)
COC1=C(Br)[C@H](O)[C@@]2(C=C1Br)CC(C(=O)NCCCCCNC(=N)N)=NO2 [APLYSINAMISINE II] | Active | Active | Active | > 50 | > 50 | 10 (≈ 19.6 µM)
COC1=C(Br)[C@H](O)[C@@]2(C=C1Br)CC(C(=O)NC/C=C\c1c[nH]c(N)n1)=NO2 [APLYSINAMISINE I] | Active | Active | Active | > 50 | > 50 | –
